{"source": "patent EP2468279A1", "about": "“Prokineticin 1 receptor agonists and their uses” (Université de Strasbourg, priority 2010, dated 2012)", "type_in_all_cases": "cell-based", "key": {"[1]": {"test_system": "endothelial cells (H5V)", "assay": "Induction of in vitro angiogenesis: tube formation on Growth Factor Reduced Matrigel", "conditions": "serum free medium, 24h at 37°C, number of branching points, Figures 3 and 4", "experimental": "Coronary endothelial cells (H5V cells) were maintained in DMEM supplemented with 10% heat inactivated Fetal Calf Serum (FCS), glutamine (1mM) under 5% CO2 at 37°C.\nIn order to evaluate the potential angiogenic activity of the PKR1 agonists, the test of Growth Factor Reduced Matrigel (GFR Matrigel) 24 well plate was performed. Matrigel leads to the differentiation of many cell types and induces the formation and organization of endothelial cells into capillary tubules. Twenty-four-well culture plates were coated with Matrigel and endothelial cells (H5V) were trypsin-harvested and seeded onto the coated plates at 10^5 cells per well in the serum free assay medium with PKR1 agonists, IS1 and prokineticin-2, and incubated at 37°C for 24h. Tube formation as two dimensional branched structures were observed using an inverted phase contrast microscope (Zeiss), and the number of branching points were quantified in per well from each sample. Each experiment was repeated at least three times. Images were captured at a magnification of X10 with a digital microscope camera system (Urayama K et al., 2007)."}, "[2]": {"target": "T1, PKR1 (Homo sapiens, UniProt Q8TCW9)", "T1 construct": "expressed in transfected cells; host or cells: CHO-K1 cells, transfected with Lipofectamine2000", "T1 sequence (Q8TCW9 whole entry)": "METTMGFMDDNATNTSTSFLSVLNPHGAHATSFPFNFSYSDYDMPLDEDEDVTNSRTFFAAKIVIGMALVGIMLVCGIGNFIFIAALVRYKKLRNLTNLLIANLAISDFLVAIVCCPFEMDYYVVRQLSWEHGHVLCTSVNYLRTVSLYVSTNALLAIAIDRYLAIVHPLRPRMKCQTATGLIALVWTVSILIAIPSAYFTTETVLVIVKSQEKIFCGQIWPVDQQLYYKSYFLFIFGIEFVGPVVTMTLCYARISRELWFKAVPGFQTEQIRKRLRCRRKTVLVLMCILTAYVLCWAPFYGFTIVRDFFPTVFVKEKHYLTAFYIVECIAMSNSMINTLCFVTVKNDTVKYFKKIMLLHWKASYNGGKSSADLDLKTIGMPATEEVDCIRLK", "assay": "Activation of PKR1 signalling pathway: intracellular calcium measured with Fluo 4-AM in CHO-K1 cells infected with adenovirus carrying PKR1 cDNA", "conditions": "CHO-K1 cells expressing PKR1, Fluo 4-AM fluorescence; Figure 5", "experimental": "CHO-K1 (Chinese Hamster Ovary) cells were infected with a adenovirus carrying PKR1 cDNA. Cells were then stimulated, 48h after infection, with or without IS1 agonists, at 37°C. Calcium imaging was conducted essentially as previously described (Horinouchi et al., 2007) In brief, Intracellular free calcium [Ca^2+]i was measured with the fluorescent Ca^2+ indicator dye Fluo 4-AM, the membrane-permeant acetoxymethyl ester form of Fluo 4 (Invitrogen). Changes in [Ca^2+]i were determined from variations in the fluorescence intensity of Fluo 4-AM. Briefly, trypsinized CHO-K1-PKR1 cells were seeded onto glass bottom culture dishes (MatTek, MA, USA) for 24 h. […] The fluorescence in the cells was excited at a wavelength of 488 nm and a series of images (total exposure time: 300 s) were acquired at 0.5s intervals at emission wavelength 518 nm. Data are presented as the fluorescence intensity of 3 randomly chosen cells within a randomly selected 40 × field. To evaluate the effect of IS1 compound on [Ca^2+]i in CHO-K-PKR1, the maximum change in fluorescence intensity upon addition of IS1 was measured and normalized to the baseline fluorescence obtained before IS 1 addition."}, "[3]": {"target": "T1, PKR1", "assay": "PKR1 internalization in CHO-K1 cells transfected with GFP-PKR1, by confocal microscopy", "conditions": "Figure 6", "experimental": "The capacity of agonist compounds to induce internalization of PKR1 was assessed. Therefore, CHO-K1 cells transfected with a plasmid encoding GFP-PKR1 (Green Fluorescent Protein-PKR1), in the presence of Lipofectamine2000 (Invitrogen), were used. Cells were stimulated, 48h after transfection, with or without agonist compound, at 37°C. GFP is a fluorescent protein fusion (26.9 kDa) which has a major excitation peak at a wavelength of 396 nm and a minor one at 472 nm. Its emission peak is at 504 nm which is in the lower green portion of the visible spectrum. Fluorescence allowed tracking the localization of PKR1 after stimulation by the agonist (membrane or subcellular). Cells were seeded in glass-bottom coated with polyL-lysine and receptor studies were performed in the presence of various PKR1-ligands. Samples were observed under a Leica confocal microscope (SP2 AOBS MP) with objective 63× at 37°C. Images were automatically recorded during 20 min, with increasing time intervals to avoid bleaching effects because of repetitive scanning. Reconstituted videos contained 42 images and lasted 2 second."}}}
{"smiles": "O=C(NCc1cccnc1)C(=Cc1ccco1)NC(=O)c1ccccc1", "note": "[IS1]", "values": [{"measurement": "in vitro angiogenesis (tube-like formation of the endothelial cells on Matrigel)", "setting": "[1]", "result": "Induction of in vitro angiogenesis"}, {"measurement": "activation of the PKR1 signalling pathway (intracellular calcium release)", "setting": "[2]", "result": "able to activate the PKR1 signalling pathway"}, {"measurement": "PKR1 internalization", "setting": "[3]; CHO cells GFP-PKR1, 48h after transfection, 37°C", "result": "induces its internalization"}, {"measurement": "specificity of interaction with PKR1", "setting": "[3]; CHO cells GFP-PKR1", "result": "specifically interacts with PKR1"}]}
